# Experiments:
# [1] = Inhibition of goat lenses ALR2 using glyceraldehyde as substrate measured for 5 mins by UV-spectrophotometric method; design: species or system Capra hircus
# [2] = target: Poly [ADP-ribose] polymerase 1 (Homo sapiens, UniProt P09874); assay: Inhibition of PARP1 (unknown origin) using activated DNA as substrate measured after 60 mins in presence of biotinylated NAD by colorimetric assay
# Chain of Poly [ADP-ribose] polymerase 1 (P09874 whole entry): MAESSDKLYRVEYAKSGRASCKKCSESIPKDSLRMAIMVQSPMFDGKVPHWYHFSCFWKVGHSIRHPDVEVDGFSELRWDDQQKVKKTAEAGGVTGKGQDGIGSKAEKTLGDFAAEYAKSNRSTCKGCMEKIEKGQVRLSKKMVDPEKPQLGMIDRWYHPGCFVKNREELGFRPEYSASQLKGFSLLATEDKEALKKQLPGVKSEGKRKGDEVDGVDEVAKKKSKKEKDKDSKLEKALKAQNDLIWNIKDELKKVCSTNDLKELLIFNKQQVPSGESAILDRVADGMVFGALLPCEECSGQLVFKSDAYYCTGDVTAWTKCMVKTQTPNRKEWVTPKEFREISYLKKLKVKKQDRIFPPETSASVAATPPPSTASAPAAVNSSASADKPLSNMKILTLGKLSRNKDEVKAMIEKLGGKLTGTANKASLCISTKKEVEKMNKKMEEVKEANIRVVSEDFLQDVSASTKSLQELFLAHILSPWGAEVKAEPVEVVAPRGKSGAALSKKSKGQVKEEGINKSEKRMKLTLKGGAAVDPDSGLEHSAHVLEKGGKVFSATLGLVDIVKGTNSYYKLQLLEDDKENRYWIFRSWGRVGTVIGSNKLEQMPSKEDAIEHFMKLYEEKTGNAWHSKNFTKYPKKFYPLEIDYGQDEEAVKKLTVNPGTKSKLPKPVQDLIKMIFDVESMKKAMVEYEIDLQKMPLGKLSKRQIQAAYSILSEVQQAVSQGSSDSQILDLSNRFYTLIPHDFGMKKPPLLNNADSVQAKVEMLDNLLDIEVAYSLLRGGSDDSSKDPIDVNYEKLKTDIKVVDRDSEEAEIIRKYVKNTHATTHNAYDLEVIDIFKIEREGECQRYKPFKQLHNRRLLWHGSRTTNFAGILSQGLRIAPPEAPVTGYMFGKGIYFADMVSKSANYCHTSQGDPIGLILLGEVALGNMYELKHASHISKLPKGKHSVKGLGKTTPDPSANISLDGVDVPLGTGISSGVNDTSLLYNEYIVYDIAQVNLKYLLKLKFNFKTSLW
IC50 [1],IC50 [2],Structure (SMILES)
1.7 µM,–,O=C1NC(=O)/C(=C/c2cn(Cc3ccc(F)cc3)c3ccccc23)S1
48.5 µM,–,CC(C)(C)c1ccc(Cn2cc(/C=C3\SC(=O)NC3=O)c3ccccc32)cc1
15.4 µM,> 100 µM,O=C1NC(=O)/C(=C/c2cn(Cc3ccc(Cl)cc3)c3ccccc23)S1
23 µM,–,O=C1NC(=O)/C(=C/c2cn(Cc3cccc(Cl)c3)c3ccccc23)S1
40 µM,0.74 µM,CC(C)c1ccc(Cn2cc(C=C3SC(=O)NC3=O)c3ccccc32)cc1
4.72 µM,–,O=C1NC(=O)/C(=C/c2cn(Cc3ccccc3Cl)c3ccccc23)S1
0.09 µM,–,CC(/C=C1\SC(=S)N(CC(=O)O)C1=O)=C\c1ccccc1
13.9 µM,–,CCc1ccc(Cn2cc(C=C3SC(=O)NC3=O)c3ccccc32)cc1
6.57 µM,> 100 µM,O=C1NC(=O)/C(=C/c2cn(Cc3ccccc3)c3ccccc23)S1
24.4 µM,–,O=C1NC(=O)/C(=C/c2cn(Cc3ccc(Cl)cc3Cl)c3ccccc23)S1
11.5 µM,–,Cc1ccc(Cn2cc(C=C3SC(=O)NC3=O)c3ccccc32)cc1
22.9 µM,–,O=C1NC(=O)/C(=C/c2cn(Cc3cccc(C(F)(F)F)c3)c3ccccc23)S1
16.4 µM,> 100 µM,O=C1NC(=O)/C(=C/c2c[nH]c3ccccc23)S1

# From ChEMBL document CHEMBL4028835, “Identification of low micromolar dual inhibitors for aldose reductase (ALR2) and poly (ADP-ribose) polymerase (PARP-1) using structure based design approach” (Bioorg Med Chem Lett, 2017)
